Paper PMC12466757, “1,5-Diarylidene-4-Piperidones as Promising Antifungal Candidates Against Cryptococcus neoformans” (Antibiotics, 2025)
In brackets after ≈: the same amount, converted by molar mass.

What was measured:
[1] = system: Cryptococcus neoformans (DSM11959); assay: MIC assay against C. neoformans; format: cell-based; conditions: lowest concentration totally inhibiting growth, 35 °C, 24–48 h
[2] = system: various human cells, i.e., A498, BEAS-2B, Caco-2, HaCaT, and HepG2
in vitro [3] = conditions: human, Caco-2
[4] = system: Candida albicans (DSM 10697); assay: MIC assay, pathogenic yeast C. albicans; format: cell-based; conditions: DSM10697, 35 °C, 24–48 h
[5] = system: Candida auris (DSM 21092); assay: MIC assay, pathogenic yeast C. auris; format: cell-based; conditions: Candidozyma auris, DSM21092, 35 °C, 24–48 h
[6] = system: Candida glabrata (DSM 11226); assay: MIC assay, pathogenic yeast C. glabrata; format: cell-based; conditions: Nakaseomyces glabratus, DSM11226, 35 °C, 24–48 h
[7] = system: Candida tropicalis (DSM 9419); assay: MIC assay, pathogenic yeast C. tropicalis; format: cell-based; conditions: DSM9419, 35 °C, 24–48 h
[8] = system: Aspergillus flavus (DSM 1959); assay: MIC assay, filamentous fungus A. flavus; format: cell-based; conditions: DSM1959, DSM 1959, plant pathogen, 25 °C, 48–72 h
A. fumigatus (DSM 819) = assay: MIC assay, filamentous fungus A. fumigatus; format: cell-based; conditions: Aspergillus fumigatus, DSM819; DSM 819, human pathogen; 35 °C, 24–48 h
[9] = system: Colletotrichum graminicola (DSM 63127); assay: MIC assay, filamentous fungus C. graminicola; format: cell-based; conditions: DSM63127, DSM 63127, plant pathogen, 25 °C, 48–72 h
[10] = system: Fusarium graminearum (DSM 1095); assay: microbe, parasite or virus in culture; format: cell-based; conditions: DSM1095, read-out: MIC F. graminearum
Magnaporthe oryzae = assay: microbe, parasite or virus in culture; format: cell-based; conditions: Pyricularia oryzae, read-out: MIC M. oryzae
[11] = system: Microdochium bolleyi (DSM 62073); assay: MIC assay, filamentous fungus M. bolleyi; format: cell-based; conditions: 48–72 h
[12] = system: Penicillium verrucosum (DSM 12639); assay: MIC assay, filamentous fungus P. verrucosum; format: cell-based; conditions: DSM12639, DSM 12639, plant pathogen, 25 °C, 48–72 h
[13] = system: Trichophyton rubrum (DSM16111); assay: MIC assay, filamentous fungus T. rubrum; format: cell-based; conditions: DSM16111, human pathogen, 35 °C, 24–48 h
[14] = system: Staphylococcus aureus (ATCC 6538); assay: Antibacterial liquid MIC determination, S. aureus; format: cell-based; conditions: ATCC6538, Gram-positive
in vitro [15] = conditions: human
in vitro [16] = conditions: human; remark: listed apart in the source
in vitro [17] = conditions: human; remark: listed apart in the source
in vitro [18] = conditions: human; remark: listed apart in the source
in vitro [19] = conditions: human; remark: listed apart in the source
[20] = Cytotoxicity, resazurin cell viability assay, A498; conditions: human, A498 kidney cells
[21] = Cytotoxicity, resazurin cell viability assay, HaCaT; conditions: human, HaCaT skin cells
[22] = Cytotoxicity, resazurin cell viability assay, HepG2; conditions: human, HepG2 liver cells
[23] = Cytotoxicity, resazurin cell viability assay, Caco-2; conditions: human
[24] = Cytotoxicity, resazurin cell viability assay, BEAS-2B; conditions: human, BEAS-2B airway epithelial cells
[25] = Cryptococcus neoformans, DSM11959, C. neoformans DSM 11959
[26] = DSM62073, DSM 62073, plant pathogen, 25 °C

In the case of `CCCCOc1ccc(/C=C2/C(=O)/C(=C/c3ccc(OCCCC)cc3OCCCC)C3CCC2N3C)c(OCCCC)c1` [2n], the MIC [1, 25] is reported as greater than 250 µM.
In the case of `CCCCOc1ccc(/C=C2\CN(Cc3ccccc3)C/C(=C\c3ccc(OCCCC)cc3)C2=O)cc1` [2o], the MIC [1, 25] is reported as 125 µM (≈ 63.7 µg/mL), the “CC50 (range depending on the cell model)” value [2] is reported as 64.9 to >1000 and the CC50 at 48 h (in vitro [3]) is reported as 455 µM.
Molecule `COc1ccc(/C=C2\CN(Cc3ccccc3)C/C(=C\c3ccc(OC)cc3OC)C2=O)c(OC)c1` [3a] has an MIC ([1]; C. neoformans DSM 11959) greater than 250 µM and an MIC [1, 25] greater than 250 µM.
With `CCCCOc1ccc(/C=C2\CN(Cc3ccccc3)C/C(=C\c3ccc(OCCCC)cc3OCCCC)C2=O)c(OCCCC)c1` [3h] the MIC [1, 25] was 7.8 µM (≈ 5.1 µg/mL), the MIC [4] was 62.5 µM (≈ 40.9 µg/mL) and the MIC [5] was 7.8 µM (≈ 5.1 µg/mL). It also gave an MIC [6] of 7.8 µM (≈ 5.1 µg/mL), an MIC [7] of 125 µM (≈ 81.7 µg/mL) and an MIC [8] of 31.2 µM (≈ 20.4 µg/mL). The MIC (A. fumigatus (DSM 819)) was 31.2 µM (≈ 20.4 µg/mL), the MIC [9] was 250 µM (≈ 163 µg/mL) and the MIC [10] was 125 µM (≈ 81.7 µg/mL). For the same molecule, the MIC (Magnaporthe oryzae) was 7.8 µM (≈ 5.1 µg/mL), the MIC ([11]; DSM62073, 25 °C) was 7.8 µM (≈ 5.1 µg/mL) and the MIC [11, 26] was 31.2 µM (≈ 20.4 µg/mL). For the same molecule, the MIC [12] was 62.5 µM (≈ 40.9 µg/mL), the MIC [13] was 7.8 µM (≈ 5.1 µg/mL) and the CC50 at 48 h (in vitro [3]) was 629 µM.
Molecule `CCCCOc1ccc(/C=C2\CN(Cc3ccccc3)C/C(=C\c3ccc(OCCCC)c(OCCCC)c3)C2=O)cc1OCCCC` [3iso-h] has an MIC [1, 25] of 62.5 µM (≈ 40.9 µg/mL), an MIC [4] of 250 µM (≈ 163 µg/mL) and an MIC [5] of 31.2 µM (≈ 20.4 µg/mL). The MIC [6] was 62.5 µM (≈ 40.9 µg/mL), the MIC [7] was 125 µM (≈ 81.7 µg/mL) and the MIC [8] was greater than 250 µM. For the same molecule, the MIC (A. fumigatus (DSM 819)) was 125 µM (≈ 81.7 µg/mL), the MIC [9] was 125 µM (≈ 81.7 µg/mL) and the MIC [10] was greater than 250 µM. For the same molecule, the MIC (Magnaporthe oryzae) was 15.6 µM (≈ 10.2 µg/mL), the MIC [11, 26] was 62.5 µM (≈ 40.9 µg/mL) and the MIC [12] was 125 µM (≈ 81.7 µg/mL). It also gave an MIC [13] of 125 µM (≈ 81.7 µg/mL) and a CC50 at 48 h (in vitro [3]) greater than 1000 µM.
With `O=C1/C(=C/c2ccc[nH]2)CN(Cc2ccccc2)C/C1=C\c1ccc[nH]1` [3j] the MIC [1, 25] was 62.5 µM (≈ 21.5 µg/mL), the MIC [14] was 250 µM (≈ 85.9 µg/mL) and the CC50 at 48 h (in vitro [3]) was 26.1 µM.
In the case of `CCCCOc1ccc(/C=C2\CN(C3CC3)C/C(=C\c3ccc(OCCCC)cc3OCCCC)C2=O)c(OCCCC)c1` [4h], the MIC [1, 25] is reported as 250 µM (≈ 151 µg/mL), the CC50 at 48 h (in vitro [15]) is reported as greater than 1000 µM and the CC50 at 48 h (in vitro [16]) is reported as greater than 1000 µM. For the same molecule, the CC50 at 48 h (in vitro [3]) was greater than 1000 µM, the CC50 at 48 h (in vitro [17]) was greater than 1000 µM and the CC50 at 48 h (in vitro [18]) was greater than 1000 µM. For the same molecule, the CC50 at 48 h (in vitro [19]) was greater than 1000 µM.
In the case of `CCCCOc1ccc(/C=C2\CN(C(=O)OC(C)(C)C)C/C(=C\c3ccc(OCCCC)cc3OCCCC)C2=O)c(OCCCC)c1` [5h], the MIC ([1]; C. neoformans DSM 11959) is reported as greater than 250 µM and the MIC [1, 25] is reported as greater than 250 µM.
Work on `CCCCOc1ccc(/C=C2\CN(S(C)(=O)=O)C/C(=C\c3ccc(OCCCC)cc3OCCCC)C2=O)c(OCCCC)c1` [6h] yielded an MIC ([1]; C. neoformans DSM 11959) greater than 250 µM and an MIC [1, 25] greater than 250 µM.
Work on `CCCCOc1ccc(/C=C2\CN(C(=O)OCc3ccccc3)C/C(=C\c3ccc(OCCCC)cc3OCCCC)C2=O)c(OCCCC)c1` [7h] yielded an MIC ([1]; C. neoformans DSM 11959) greater than 250 µM and an MIC [1, 25] greater than 250 µM.
With `CCCCOc1ccc(/C=C2\CCC/C(=C\c3ccc(OCCCC)cc3OCCCC)C2=O)c(OCCCC)c1` [8h] the MIC ([1]; C. neoformans DSM 11959) was greater than 250 µM and the MIC [1, 25] was greater than 250 µM.
Molecule `CCCCOc1ccc(/C=C2\CC(C)C/C(=C\c3ccc(OCCCC)cc3OCCCC)C2=O)c(OCCCC)c1` (centres unmarked) [9h] has an MIC [1, 25] greater than 250 µM.
Work on `CCCCOc1ccc(/C=C2\CC(C(C)(C)C)C/C(=C\c3ccc(OCCCC)cc3OCCCC)C2=O)c(OCCCC)c1` (centres unmarked) [10h] yielded an MIC [1, 25] greater than 250 µM.
Work on `OC(Cn1cncn1)(Cn1cncn1)c1ccc(F)cc1F` [Fluconazole, reference compound] yielded an MIC [1, 25] of 25 µM (≈ 7.66 µg/mL), an MIC [4] of 6.25 µM (≈ 1.91 µg/mL) and an MIC [5] of 500 µM (≈ 153 µg/mL). For the same molecule, the MIC [6] was 250 µM (≈ 76.6 µg/mL), the MIC [7] was 1000 µM (≈ 306 µg/mL) and the MIC [8] was greater than 1000 µM. It also gave an MIC (A. fumigatus (DSM 819)) greater than 1000 µM, an MIC [9] of 50 µM (≈ 15.3 µg/mL) and an MIC [10] greater than 1000 µM. The MIC (Magnaporthe oryzae) was 12.5 µM (≈ 3.83 µg/mL), the MIC [11, 26] was greater than 1000 µM and the MIC [12] was greater than 1000 µM. The MIC [13] was greater than 1000 µM, the “CC50 (range depending on the cell model)” value [2] was 841.2 to >1000 and the CC50 at 48 h [20] was 994 µM. The CC50 at 48 h [21] was 841 µM, the CC50 at 48 h [22] was greater than 1000 µM and the CC50 at 48 h [23] was 977 µM. For the same molecule, the CC50 at 48 h [24] was 942 µM.
